ChEMBL document CHEMBL1154198, “Chemical genetics of Plasmodium falciparum” (Nature, 2010)

How the values were obtained:
[1] = test system: Plasmodium falciparum; experiment: ST_JUDE: Plasmodium falciparum 3D7 EC50 (uM) as measured by SYBR green dye; type: functional, organism-based
[2] = test system: Plasmodium falciparum; experiment: ST_JUDE: Plasmodium falciparum K1 EC50 (uM) as measured by SYBR green dye; type: functional, organism-based

EC50 [1] [µM]	EC50 [2] [µM]	SMILES
> 15	8.96	CCOC(=O)c1ccc(-n2[nH]c(-c3ccccc3)cc2=O)cc1
3.76	3.68	O=C(c1cccc(Cl)c1)N1CCN(c2ccc([N+](=O)[O-])c(NC3CC3)c2)CC1
> 15	0.595	CCCOc1ccccc1C(=O)Nc1nonc1-c1ccc(OCC)c(OCC)c1
1.47	1.59	COc1ccccc1Cn1ccnc1SCC(=O)Nc1cccc(C(F)(F)F)c1
> 15	> 15	Cc1cccc(-n2ccnc2SCC(=O)Nc2cc(C(F)(F)F)ccc2Cl)c1
0.0625	0.0571	CN1CCN(c2ccc(Nc3ccnc4cc(Cl)ccc34)cc2Cl)CC1
4.71	0.73	O=C1CC(c2ccc(F)cc2F)C2=C(CC(c3ccc(F)cc3)CC2=O)N1 (centres undefined)
4.54	> 15	CCN1CCN(CCCNC(=O)c2cc3cc4ccc(Cl)cc4nc3o2)CC1
7.57	3.73	COc1ccc(CN2CCN(CC(C)(C)C)C(CCO)C2)c(O)c1 (centres undefined)
> 15	1.39	COc1ccc(OC)c(C2C(C(=O)OC(C)C)=C(C)N=c3s/c(=C\c4ccc(O)cc4)c(=O)n32)c1 (centres undefined)
1.59	6.63	COc1cc(CNCCCN(C)C)ccc1OCc1ccc(F)cc1Cl
3.14	2.16	CCOC(=O)c1oc2c(c1C)-c1nn(Cc3ccc(C)cc3)cc1CC2
3.83	> 15	CO/C(O)=C1\C(C)=NC2=C(C(=O)CC(c3ccccc3OC)C2)C1c1ccc([N+](=O)[O-])cc1 (centres undefined)
> 15	> 15	CCC(=O)Oc1cccc2ccc(/C=C/c3cc4c(cc3Cl)OCO4)nc12
> 15	> 15	O=C(Cc1ccccc1)N(Cc1cccnc1)c1nc2ccc(Cl)cc2s1
3.52	2.83	C=CCN1C(=O)c2[nH]nc(-c3c(C)cc(C)cc3O)c2C1c1cccc(OCC)c1 (centres undefined)
3.98	> 15	CCOc1ccc(C2c3cccn3CCN2C(=O)NCc2ccccc2)cc1 (centres undefined)
2.29	2.42	CCOc1cc(CN(C)Cc2nnc(SCc3ccccc3C)n2CC2CCCO2)ccc1OC (centres undefined)
1.71	0.735	CC(C)CCNCC(O)CON=C1c2ccccc2-c2ccccc21 (centres undefined)
0.256	0.181	O=C1C(Nc2ccc(I)cc2)=C(N2CCOCC2)C(=O)c2ccccc21
> 15	> 15	COc1ccc(C2N(C)c3ccccc3N2C)cc1
2.3	> 15	N=C(N/N=C\c1ccc(Br)cc1)N/N=C\c1ccc(Br)cc1

EC50 [1] [µM]	EC50 [2] [µM]	SMILES
> 15	1.54	COc1ccc2c(=O)cc(C(Cl)(Cl)Cl)oc2c1
> 15	> 15	Cc1ccc(Nc2nc(N)c3ccccc3n2)cc1Cl
1.21	3.18	CCCN1CCN(CCCNC(=O)c2ccc3c(c2)sc2nc(-c4cccc(OC)c4)cn23)CC1
1.97	0.725	CCCCCCn1c(=N)n(CC(O)COc2cccc(C)c2)c2ccccc21 (centres undefined)
1.33	> 15	CC/C(=C\c1sc2ccc(OC)cc2[n+]1CC)SC
7.66	4.69	Oc1c(C(Nc2ccccn2)c2cccc(Cl)c2)cc(Cl)c2cccnc12 (centres undefined)
> 15	5.13	O=C(Cc1ccc(Cl)cc1)Nc1cc(C(F)(F)F)cc(C(F)(F)F)c1
> 15	> 15	COc1ccc(N2CCN(C3CCCN(Cc4cccc(SC)c4)C3)CC2)cc1 (centres undefined)
> 15	> 15	COc1cc(Cl)c(NC(=O)c2cc3ccccc3cc2O)c(OC)c1
> 15	> 15	CCO/C(O)=C1\C(C)=NC2=C(C(=O)CC(c3ccc(OC)c(OC)c3)C2)C1c1cccc([N+](=O)[O-])c1 (centres undefined)
7	2.71	O=[N+]([O-])c1ccc(C2Nc3c(O)ccc(Br)c3C3C=CCC32)cc1 (centres undefined)
3.81	4.14	CCc1cccc(NC(=O)C2c3ccccc3C(=O)N(CCOC)C2c2cccs2)c1 (centres undefined)
> 15	> 15	CCOC(=O)C(C)Oc1cccc2c(=O)n(CC(=O)Nc3ccccc3C(F)(F)F)ccc12 (centres undefined)
1.2	5.8	Cc1cc(N2CCN(C)CC2)nc2ccc(NC(=S)NC3CCN(Cc4ccccc4)CC3)cc12
> 15	1.65	COc1ccc(OC)c2sc(N(Cc3cccnc3)C(=O)c3cccc(Cl)c3)nc12
> 15	> 15	COc1ccc(OCC(O)CN2CCN(c3ccc(OC)cc3)CC2)cc1 (centres undefined)
> 15	> 15	O=S(=O)(Nc1ccc(-c2ccc(N3CCCC3)nn2)cc1)c1ccc(Br)cc1
0.96	1.6	COc1ccc(CCNC(=S)Nc2ccccc2Cl)cc1Br
5.39	3.98	COc1ccc(CCNC(=S)Nc2cccc(Cl)c2)cc1OC
1.49	2.27	CCN(CC)CCOc1ccc2c(c1)C(=NO)c1cc(OCCN(CC)CC)ccc1-2
6.73	5.3	COCCN1CCC(CN(Cc2ccncc2)Cc2ccc(CC(C)C)cc2)CC1
3.19	3.54	CN(C)CCNC(=O)c1ccc2c(c1)sc1nc(-c3ccc(F)cc3)cn12

EC50 [1] [µM]	EC50 [2] [µM]	SMILES
1.73	2.5	CC(C)CC(=O)NC(NC(=S)Nc1cccc(Cl)c1)C(Cl)(Cl)Cl (centres undefined)
> 15	> 15	CN(C)CCCNc1c2c(nc3ccccc13)CCC2
> 15	0.335	CCN(CC)C(=O)CSc1nc2cc(OC)c(OC)cc2c2nc(-c3ccccc3)nn12
3.76	5.59	Oc1cccnc1NC(c1ccc(Cl)cc1)c1ccc2cccnc2c1O (centres undefined)
> 15	> 15	Cc1nc2ccc(/N=C/c3ccc(N(C)C)cc3)cc2s1
> 15	> 15	CCCN(CCC)C(=O)c1ccc2c(Cl)c3c(nc2c1)CCCC3
> 15	> 15	CCOc1ccccc1NC(=O)C(C)Oc1cccc(Br)c1 (centres undefined)
> 15	> 15	O=C(/C=C/c1ccco1)Nc1ccc(C(F)(F)F)cc1
> 15	5.33	O=S(=O)(NCC(c1cccnc1)N1CCN(c2ccccc2F)CC1)c1ccc(F)cc1 (centres undefined)
> 15	2.26	CCOC(=O)C1=C(C)N=c2s/c(=C\c3ccc(O)c(OC)c3)c(=O)n2C1c1ccc(F)cc1 (centres undefined)
> 15	4.19	O=C(O)c1cccc(NC2=C(n3nnc4ccccc43)C(=O)c3ccccc3C2=O)c1
> 15	> 15	Cc1nc2nc(NCc3cccc(Br)c3)nn2c(O)c1C
> 15	> 15	CCOC(=O)c1ccc2nc(C)cc(Nc3ccc(C)cc3C)c2c1
> 15	4.64	COc1ccccc1N1CCN(C(CNS(=O)(=O)c2ccc(Cl)cc2)c2cccnc2)CC1 (centres undefined)
1.65	> 15	O=C(N/N=C/c1nc2ccccc2[nH]1)c1cccc(Cl)c1
> 15	2.34	C[n+]1ccn2c3c(c4cc(C5CCCCC5)ccc42)CCCc31
3.15	1.62	CC1=C(C)CC2C(=O)C3=C(C(=O)C2C1)C1c2ccccc2C3c2ccccc21 (centres undefined)
> 15	> 15	Cc1ccc(Nc2cc(C)nc(N3CCN(C(=O)Nc4cccc(Cl)c4)CC3)n2)cc1
> 15	> 15	CC(=O)N1CCc2c(sc(NC(=O)c3ccc(C)c(C)c3)c2C(N)=O)C1
> 15	> 15	CCc1ccc2nc(N(Cc3cccnc3)C(C)=O)sc2c1
> 15	> 15	COc1ccc(C(=O)Nc2cccc(-c3nc4ccccc4s3)c2)cc1[N+](=O)[O-]
3.39	4.68	CCOc1ccc(/C=C(/C#N)c2nc3ccccc3[nH]2)cc1OC

EC50 [1] [µM]	EC50 [2] [µM]	SMILES
6.66	4.46	O=[N+]([O-])c1cccc(NC(=S)Nc2ccc(OC(F)F)c(Cl)c2)c1
1.75	2.02	CC(=O)c1cccc(NC(=O)C2c3ccccc3C(=O)N(C3CCCC3)C2c2cccs2)c1 (centres undefined)
0.35	> 15	CN(C)CCCNCc1ccc2[nH]c3ccccc3c2c1
> 15	> 15	COc1cc(/C=C(\C#N)C(=O)Nc2ccccc2F)cc(OC)c1OC
> 15	> 15	COc1ccc(NC(=O)c2sc3ccccc3c2Cl)c(OC)c1
> 15	4.42	Cc1cccc(C2CC(=O)NC3=C2C(=O)CC(c2ccccc2Cl)C3)c1 (centres undefined)
0.982	6.36	CCOc1ccc2nc(C)cc(Nc3ccc(N4CCOCC4)cc3)c2c1
3.44	2.42	Cc1cccc2sc(N(Cc3cccnc3)C(=O)C3CCCCC3)nc12
1.6	1.79	Cc1cc(C)cc(Nc2nc(NCC3CCCO3)c3ccccc3n2)c1 (centres undefined)
4	3.84	COc1ccc(N2C(=O)c3cccnc3C2Nc2ccc(C)cc2Cl)cc1 (centres undefined)
0.765	0.5	O=C(Nc1ccc(Cl)cc1C(O)c1ccccc1)c1cnn2c1NC(c1ccccc1)CC2C(F)(F)F (centres undefined)
1.4	0.65	OC(CN1CCN(C/C=C/c2ccccc2)CC1)Cn1c2ccccc2c2ccccc21 (centres undefined)
> 15	> 15	Cc1cc(C)c2c(=O)cc(C(Cl)(Cl)Cl)oc2c1
> 15	3.53	COc1ccc2nc(N(Cc3cccnc3)C(=O)CCc3ccccc3)sc2c1
2.28	1.71	CCOC(=O)C1=C(c2ccc(F)cc2)C(=O)c2ccccc2C1=O
6.82	5.31	Cc1cccc2sc(N(Cc3cccnc3)C(=O)c3ccco3)nc12
> 15	1.55	CC(C)OC(=O)c1cc(NC(=S)Nc2ccc([N+](=O)[O-])cc2)cc(C(=O)OC(C)C)c1
> 15	1.49	COc1ccc2sc(N(Cc3cccnc3)C(=O)c3ccc(F)cc3)nc2c1
1.61	2.09	Cc1n(C)c2ccccc2[n+]1CC(=O)c1ccc([N+](=O)[O-])cc1
0.0145	0.0135	CCCCOc1ccc(NC2=C(N3CCCCC3)C(=O)c3ccccc3C2=O)cc1

SMILES	EC50 [1] [µM]	EC50 [2] [µM]
NNc1nc(Nc2ccc(F)cc2)nc(N2CCOCC2)n1	7.07	5.15
